AC50, IC50 and EC50 data for six compounds are collected here from ChEMBL document CHEMBL1201862, “PubChem BioAssay data set” (2004).

Assay [1] is described as follows: P. falciparum Dd2 growth inhibitors, dose response, SYBR Green, cherry-picked samples (AID 1159567). It counts as functional, cell-based.
A short description of assay [2]: viability loss in HEK293 kidney cells – cell-based, cherry-picks, set 5, cytotoxicity control, dose response (AID 1053117). It counts as functional.
Assay [3] can be described thus: toxicity to human hepatoma HepG2 cells – cell-based, cherry-picked samples, cytotoxicity control, dose response (AID 1159577). The assay is classed as functional.
Assay [4] can be described thus: blockers of FN fibrillogenesis by fibroblasts – AH1F cells, Alexa488-FN fluorescence, cherry-picks, dose response (AID 1035475). The assay is classed as functional, cell-based.
A short description of assay [5]: viability loss in A549 lung cancer cells – cell-based, cherry-picks, […], cytotoxicity control, dose response (AID 1053119). The assay is classed as functional.
A short description of assay [6]: viability loss in HepG2 hepatoma cells – cell-based, cherry-picks, set 5, cytotoxicity control, dose response (AID 1053118). It counts as functional.
Assay [7] in a line: MITF Orthogonal Assay: SK-MEL-5 CTG Assay Measured in Cell-Based System Using Plate Reader - 2084-02_Inhibitor_Dose_DryPowder_Activity_Set7. The assay is classed as functional.
Assay [8] in a line: MITF: Counter assay: A375 proliferation Measured in Cell-Based System Using Plate Reader - 2084-03_Inhibitor_Dose_DryPowder_Activity_Set8. The following applies: A-375. It counts as functional.
Assay [9] can be described thus: inhibitors of TRPM1-promoter reporter in SK-MEL-5 – cell-based, luciferase, dry powder, set 8, MITF inhibitor project, dose response (AID 624430). It counts as functional.
Another assay is described as follows: cells. As to conditions: HEK293.
In assay [10] the target is 1-phosphatidylinositol 4,5-bisphosphate phosphodiesterase gamma-1 (Homo sapiens, UniProt P19174). The assay can be described thus: Counterscreen for inhibitors of phospholipase C isozymes (PLC-B3): Fluorescence-based biochemical high throughput dose response assay to identify inhibitors of phospholipase C isozymes (PLC-gamma1). Background: The purpose of a counterscreen is to sort out artefacts and off-target activity.
1-phosphatidylinositol 4,5-bisphosphate phosphodiesterase gamma-1, sequence (P19174 whole entry): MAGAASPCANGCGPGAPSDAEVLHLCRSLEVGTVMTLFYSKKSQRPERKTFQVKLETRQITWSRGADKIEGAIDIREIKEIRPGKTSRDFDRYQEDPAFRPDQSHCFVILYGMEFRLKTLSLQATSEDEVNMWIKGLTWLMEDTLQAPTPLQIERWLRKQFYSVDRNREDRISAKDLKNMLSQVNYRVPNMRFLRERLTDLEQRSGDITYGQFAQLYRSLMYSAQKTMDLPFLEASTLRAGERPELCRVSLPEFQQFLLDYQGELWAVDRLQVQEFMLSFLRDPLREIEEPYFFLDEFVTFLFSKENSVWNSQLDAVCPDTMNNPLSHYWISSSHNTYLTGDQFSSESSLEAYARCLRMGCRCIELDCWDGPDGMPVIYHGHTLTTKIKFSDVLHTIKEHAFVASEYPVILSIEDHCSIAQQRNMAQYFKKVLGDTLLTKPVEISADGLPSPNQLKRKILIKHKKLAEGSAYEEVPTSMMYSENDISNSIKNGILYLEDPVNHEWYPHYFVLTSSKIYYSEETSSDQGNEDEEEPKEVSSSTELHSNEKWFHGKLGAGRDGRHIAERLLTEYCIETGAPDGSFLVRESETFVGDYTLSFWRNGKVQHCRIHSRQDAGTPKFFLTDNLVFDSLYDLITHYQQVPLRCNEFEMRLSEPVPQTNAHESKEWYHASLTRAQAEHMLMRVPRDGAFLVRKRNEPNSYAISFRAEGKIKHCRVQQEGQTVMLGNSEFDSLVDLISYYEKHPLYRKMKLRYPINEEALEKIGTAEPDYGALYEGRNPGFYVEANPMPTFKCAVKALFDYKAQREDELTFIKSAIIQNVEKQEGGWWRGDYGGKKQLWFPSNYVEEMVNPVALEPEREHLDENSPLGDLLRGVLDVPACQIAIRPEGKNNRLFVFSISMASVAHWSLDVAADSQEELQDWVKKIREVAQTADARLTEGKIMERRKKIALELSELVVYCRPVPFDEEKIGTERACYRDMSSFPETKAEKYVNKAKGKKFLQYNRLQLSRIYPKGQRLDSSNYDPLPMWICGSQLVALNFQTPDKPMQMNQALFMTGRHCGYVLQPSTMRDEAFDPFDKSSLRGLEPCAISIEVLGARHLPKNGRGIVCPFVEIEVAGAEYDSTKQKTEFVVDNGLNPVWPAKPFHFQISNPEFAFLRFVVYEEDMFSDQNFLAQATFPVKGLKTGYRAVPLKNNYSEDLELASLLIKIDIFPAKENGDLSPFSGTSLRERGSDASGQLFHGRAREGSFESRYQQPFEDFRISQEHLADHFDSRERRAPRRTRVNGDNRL

The target in assay [11] is 1-phosphatidylinositol 4,5-bisphosphate phosphodiesterase beta-3 (Homo sapiens, UniProt Q01970). Nature of the assay: Fluorescence-based biochemical high throughput dose response assay to identify inhibitors of phospholipase C isozymes (PLC-B3).
1-phosphatidylinositol 4,5-bisphosphate phosphodiesterase beta-3, sequence (Q01970 whole entry): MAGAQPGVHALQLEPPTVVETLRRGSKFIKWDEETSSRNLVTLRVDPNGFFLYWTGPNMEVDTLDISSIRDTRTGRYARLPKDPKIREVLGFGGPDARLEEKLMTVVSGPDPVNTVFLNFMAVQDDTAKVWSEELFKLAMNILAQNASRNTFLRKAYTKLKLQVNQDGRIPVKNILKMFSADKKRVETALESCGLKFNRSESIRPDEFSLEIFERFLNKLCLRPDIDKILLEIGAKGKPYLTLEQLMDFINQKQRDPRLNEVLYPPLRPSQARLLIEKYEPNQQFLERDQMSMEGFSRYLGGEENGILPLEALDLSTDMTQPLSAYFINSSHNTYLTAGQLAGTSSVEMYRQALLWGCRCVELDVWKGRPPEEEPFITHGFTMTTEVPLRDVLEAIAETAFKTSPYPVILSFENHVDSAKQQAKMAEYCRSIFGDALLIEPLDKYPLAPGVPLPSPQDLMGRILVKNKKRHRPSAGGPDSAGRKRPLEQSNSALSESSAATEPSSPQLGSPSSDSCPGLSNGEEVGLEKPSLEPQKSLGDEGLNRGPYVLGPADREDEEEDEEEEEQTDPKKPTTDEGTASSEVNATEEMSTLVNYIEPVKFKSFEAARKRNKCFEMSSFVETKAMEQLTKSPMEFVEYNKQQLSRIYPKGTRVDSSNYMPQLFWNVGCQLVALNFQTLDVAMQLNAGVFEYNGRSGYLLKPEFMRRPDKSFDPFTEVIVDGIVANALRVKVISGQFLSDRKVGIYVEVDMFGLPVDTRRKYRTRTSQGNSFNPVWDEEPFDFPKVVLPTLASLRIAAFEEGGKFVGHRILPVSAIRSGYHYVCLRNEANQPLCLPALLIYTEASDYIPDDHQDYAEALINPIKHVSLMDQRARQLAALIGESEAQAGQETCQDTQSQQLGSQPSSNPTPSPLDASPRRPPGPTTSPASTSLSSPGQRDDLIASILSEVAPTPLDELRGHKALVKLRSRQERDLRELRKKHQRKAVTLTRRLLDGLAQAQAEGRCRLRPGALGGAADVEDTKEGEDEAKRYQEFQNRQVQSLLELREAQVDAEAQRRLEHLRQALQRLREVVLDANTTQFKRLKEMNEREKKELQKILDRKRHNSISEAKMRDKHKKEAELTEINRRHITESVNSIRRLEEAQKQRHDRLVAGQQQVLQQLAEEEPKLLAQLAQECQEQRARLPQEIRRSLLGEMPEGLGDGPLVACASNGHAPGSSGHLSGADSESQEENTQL
Assay [12] can be described thus: Shn3 3'UTR reporter signal decrease – cell-based, Clone20 osteoblasts, firefly luciferase, cherry-pick, set 2, Schnurri-3 inhibitor project, dose response (AID 720490).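 Further: actives lower the luminescence signal as inhibitors.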 The assay is classed as functional.
Assay [13] can be described thus: reduction of Shn3 3'UTR-driven luciferase in osteoblasts – cell-based, Clone20 osteoblasts, firefly luciferase, cherry-picked, dose response (AID 624132).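 Further: firefly luciferase luminescence from reporter carrying the Shn3 3'UTR in osteoblasts.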 It counts as functional.
Assay [14] in a line: non-specific 3'UTR reporter inhibition in Clone20-Shn3RL – cell-based, Renilla luciferase, cherry-picked, counter-screen for Shn3 inhibitor project, dose response (AID 624133). It counts as functional.
For assay [15], the target named is COUP transcription factor 2 (Homo sapiens, UniProt P24468). Nature of the assay: Luminescence-based cell-based high throughput dose response assay to identify inhibitors of COUP-TFII (NR2F2). The assay is classed as functional.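 Further: HEK293 cells transiently cotransfected with COUP-TFII expression vector and reporter; luciferase reporter luminescence driven by COUP-TFII from the pX2-168 reporter plasmid.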
COUP transcription factor 2, sequence (P24468 whole entry): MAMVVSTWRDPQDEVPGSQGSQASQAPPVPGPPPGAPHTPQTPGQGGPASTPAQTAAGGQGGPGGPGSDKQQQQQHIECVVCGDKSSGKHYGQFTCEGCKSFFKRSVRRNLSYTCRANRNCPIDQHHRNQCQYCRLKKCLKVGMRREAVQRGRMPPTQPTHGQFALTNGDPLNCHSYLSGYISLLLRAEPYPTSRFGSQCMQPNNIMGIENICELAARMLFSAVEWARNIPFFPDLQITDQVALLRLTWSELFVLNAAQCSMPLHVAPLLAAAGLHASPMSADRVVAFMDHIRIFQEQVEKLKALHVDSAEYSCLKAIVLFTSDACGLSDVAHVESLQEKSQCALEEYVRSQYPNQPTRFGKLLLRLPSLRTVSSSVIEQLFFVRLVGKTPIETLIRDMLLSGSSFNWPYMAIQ
A short description of assay [16]: loss of viability in HepG2 cells – cell-based, CellTiter-Glo, cherry-picked, cytotoxicity control for Shn3 inhibitor project, dose response (AID 624134). The assay is classed as functional.
Another assay concerns the target T1, Protein RecA (Mycobacterium tuberculosis, UniProt P9WHJ3).
T1 sequence (P9WHJ3 whole entry): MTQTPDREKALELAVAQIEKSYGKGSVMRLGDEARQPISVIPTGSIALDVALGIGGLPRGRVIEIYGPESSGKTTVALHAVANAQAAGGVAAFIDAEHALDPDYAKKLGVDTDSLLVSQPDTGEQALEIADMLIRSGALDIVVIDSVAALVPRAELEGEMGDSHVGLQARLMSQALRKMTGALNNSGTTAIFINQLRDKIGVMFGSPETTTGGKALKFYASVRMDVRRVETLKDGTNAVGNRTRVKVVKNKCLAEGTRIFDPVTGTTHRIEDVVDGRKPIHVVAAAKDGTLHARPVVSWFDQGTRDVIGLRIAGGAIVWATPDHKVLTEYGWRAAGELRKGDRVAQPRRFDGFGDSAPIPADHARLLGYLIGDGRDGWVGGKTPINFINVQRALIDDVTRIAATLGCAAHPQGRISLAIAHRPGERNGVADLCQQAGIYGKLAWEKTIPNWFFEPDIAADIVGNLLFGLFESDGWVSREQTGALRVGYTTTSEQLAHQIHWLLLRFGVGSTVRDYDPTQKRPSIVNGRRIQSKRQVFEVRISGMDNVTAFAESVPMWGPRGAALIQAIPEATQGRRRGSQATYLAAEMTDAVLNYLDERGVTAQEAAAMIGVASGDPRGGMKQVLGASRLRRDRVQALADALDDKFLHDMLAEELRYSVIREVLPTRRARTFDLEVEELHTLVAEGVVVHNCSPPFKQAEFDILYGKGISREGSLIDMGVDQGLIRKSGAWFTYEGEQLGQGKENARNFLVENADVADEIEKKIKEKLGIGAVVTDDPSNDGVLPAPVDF
Nature of the assay: Fluorescence Cell-Free Homogeneous Dose Retest to Identify Inhibitors of RecA-Intein Splicing Activity. [Related pubchem assays (depositor defined):AID2097, AID2223, AID489010, AID492950]. It counts as functional.

In the next assay the test system is INS1. Nature of the assay: INS-1E survival protection against cytokine death – cell-based, luminescence, retest, dose response (AID 449756).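 Further: cell death triggered by IL-1 beta plus TNF-alpha plus IFN-gamma mixture; protective hits raise ATP signal compared with cytokine alone wells.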 The assay is classed as functional. The following applies: Rattus norvegicus.
Assay [17] addresses T2, Replicative DNA helicase DnaB (Mycobacterium tuberculosis, UniProt P9WMR3).
T2 sequence (P9WMR3 whole entry): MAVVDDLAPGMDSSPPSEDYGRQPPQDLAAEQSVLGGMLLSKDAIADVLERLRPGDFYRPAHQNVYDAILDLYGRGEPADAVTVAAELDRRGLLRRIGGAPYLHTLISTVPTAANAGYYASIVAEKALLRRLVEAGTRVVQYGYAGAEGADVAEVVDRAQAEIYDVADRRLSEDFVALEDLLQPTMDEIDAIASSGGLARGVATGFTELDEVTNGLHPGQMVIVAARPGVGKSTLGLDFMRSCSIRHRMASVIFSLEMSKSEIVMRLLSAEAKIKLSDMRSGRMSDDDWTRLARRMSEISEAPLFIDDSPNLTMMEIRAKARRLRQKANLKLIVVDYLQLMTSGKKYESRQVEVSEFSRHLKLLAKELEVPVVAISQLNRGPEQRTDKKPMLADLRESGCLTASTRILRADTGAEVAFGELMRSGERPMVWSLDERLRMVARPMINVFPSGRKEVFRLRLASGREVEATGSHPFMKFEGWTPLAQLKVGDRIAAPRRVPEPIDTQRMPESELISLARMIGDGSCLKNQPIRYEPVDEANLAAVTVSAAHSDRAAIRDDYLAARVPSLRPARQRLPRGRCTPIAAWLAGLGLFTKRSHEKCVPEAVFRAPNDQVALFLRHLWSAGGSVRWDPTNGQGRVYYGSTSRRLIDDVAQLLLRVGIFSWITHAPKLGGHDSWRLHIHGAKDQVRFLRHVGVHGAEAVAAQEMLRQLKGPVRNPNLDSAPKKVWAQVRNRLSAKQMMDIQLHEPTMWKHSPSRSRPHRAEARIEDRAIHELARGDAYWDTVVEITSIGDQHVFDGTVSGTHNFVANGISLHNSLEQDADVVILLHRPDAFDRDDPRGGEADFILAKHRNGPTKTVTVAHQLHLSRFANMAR
Nature of the assay: DnaB intein splicing inhibitors, dose response, biochemical, cell-free fluorescence (AID 449749). The assay is classed as functional.

Calls of active or inactive are those of the source. For most assays here, no stated cut-off is given here; in the data, actives have a measured AC50 and inactives only a lower limit.

The term AC50 denotes the midpoint of the concentration-response curve, whichever way the signal moves. As for `CO[C@H]1CN(C)C(=O)c2ccc(NC(=O)c3ccc(-c4ccccc4)cc3)cc2OC[C@@H](C)NC[C@@H]1C`, the AC50 in assay [1] is 2.02 µM (active); in [2] it was 16.3 µM (active); in assay [3] it was 7.74 µM (active); in [4], > 70 µM (inactive); in assay [5], 13.4 µM (active); in assay [6], 10.9 µM (active).

Regarding `CCN1CCN(C2=C(Nc3cccc(Cl)c3)C(=O)c3ccccc3C2=O)CC1`, the AC50 in assay [7] was 10.1 µM (active); in assay [8], 31.7 µM (active); in [9], 2.94 µM (active).

Regarding `COc1ccc(CCNC(=O)CSc2cn(Cc3cccc(C)c3)c3ccccc23)cc1OC`, the AC50 in “cells” is > 52 µM (inactive).

In general, IC50 refers to the concentration at which inhibition is half-maximal. Consider `O=[N+]([O-])c1ccc2[nH]cc(S(=O)(=O)N3CCN(c4cccc(Cl)c4)CC3)c2c1`, for which the IC50 in assay [10] and in assay [11] was > 122 µM (inactive) each time.

Regarding `O=C(COC(=O)c1[nH]nc2ccccc12)Nc1ccc(S(=O)(=O)N2CCCC2)cc1`, the AC50 was 31.8 µM (active) in [12], 5.33 µM (active) in assay [13] and 36.1 µM (active) in assay [14].

As usually defined, the EC50 is the midpoint of the concentration-response curve. `Cc1cccc(Nc2nc(NCc3ccco3)c3ccccc3n2)c1`: the AC50 in assay [13] is 2.05 µM (active); in assay [16], 13.1 µM (active); in assay [14], 3.22 µM (active); in the assay on INS1 it was 2.09 µM (active); in assay [17] it was 5.65 µM (active). For the same compound, in [15], the IC50 was 8.5 µM (active). For the same compound, the concentration for a half-maximal effect (EC50) at Protein RecA is 9.37 µM (active).
